Data published in patent US11932621B1, “2-[9-(2-hydroxypyridin-3-yl)-1,8-dioxo-1,2,3,4,5-6,7,8,9,10-decahydroacridin-10-yl]-acetate as an antimicrobial compound” (KING FAISAL UNIVERSITY, priority 2023, dated 2024).

Experiments:
Format in all cases: cell-based
Conditions in all cases: after 10, 20, 40 and 60 minutes at all dilutions 1:100, 1:200, 1:400, 1:800
Staphylococcus aureus = test: Antimicrobial screening by agar dilution, Staphylococcus aureus
Protocol: (§1) The antibacterial properties of the synthesized compound 2-[9-(2-hydroxypyridin-3-yl)-1,8-dioxo-1,2,3,4,5,-6,7,8,9,10-decahydroacridin-10-yl]-acetate were studied by the method of agar dilution. Test solutions of each compound was prepared in concentration of 1% using dimethylformamide as a solvent then they are diluted in physiological solution to obtain the final experimental dilutions 1:100, 1:200, 1:400, 1:800. The effect of these substances are compared with furacillin in a controllable study. The testing microbes used were gram positive bacteria Staphylococcus aureus, gram negative bacteria Pseudomonas aeruginosa and Escherichia coli and Candida albicans fungus. The experiments used for this survey were meat-pentonlu agar (EPA) for cultivation of bacteria and Saburo environment for the fungus. Each experiment used 1 mL of test solution on each plate […]. Two drops of emulsified with microbes feel were added. All experimental samples were taken from the agar after 10, 20, 40, 60 minutes in the environment on the basis of Patrk planted. The bacteria were cultivated at a temperature of 37° C. for 1 day and the mushroom was kept in a thermostat for […] at a temperature of 28° C. Then results were checked.

Escherichia coli = test: Antimicrobial screening by agar dilution, Escherichia coli
Protocol: as §1

Pseudomonas aeruginosa = test: Antimicrobial screening by agar dilution, Pseudomonas aeruginosa
Protocol: as §1

Candida albicans = test: Antimicrobial screening by agar dilution, Candida albicans
Protocol: as §1

Measured: inhibition activity

CCOC(=O)CN1C2=C(C(=O)CCC2)C(c2cccnc2O)C2=C1CCCC2=O [2-[9-(2-hydroxypyridin-3-yl)-1,8-dioxo-1,2,3,4,5,-6,7,8,9,10-decahydroacridin-10-yl]-acetate]
highest inhibition activity: all assays above
